Values quoted from earlier work as cited in patent US8188084B2, “Pyridinone and pyridazinone derivatives as inhibitors of poly (ADP-ribose) polymerase (PARP)” (Istituto di Ricerche di Biologia Molecolare P. Angeletti …, priority 2006, dated 2012).

Tested on: ischemia and reperfusion of the heart or skeletal muscle
Details: rabbits

Oc1cccc2c(O)nccc12 [1,5-dihydroxyisoquinoline]
reduced infarct size (single injection 1 mg/kg): 38-48%

NC(=O)c1cccc(N)c1 [3-amino-benzamide]
reductions in infarct size in the heart (single injection 10 mg/kg, one minute before occlusion or one minute before reperfusion): 32-42%
